Data reported in ChEMBL document CHEMBL1687791, “Identification and characterization of four azole-resistant erg3 mutants of Candida albicans” (2010).
≈ marks a conversion by molar mass, not a printed value.

Experiments:
Assay type in all cases: functional
Candida albicans [1] = test: Antifungal activity against Candida albicans isolate 6 by broth microdilution method
Candida albicans [2] = test: Antifungal activity against Candida albicans isolate 14 by broth microdilution method
Candida albicans [3] = test: Antifungal activity against Candida albicans isolate 177 by broth dilution method
Candida albicans [4] = test: Antifungal activity against Candida albicans isolate 12 harboring ERG3 W332R mutant gene by broth microdilution method
Candida albicans [5] = test: Antifungal activity against Candida albicans isolate 488 harboring ERG3 H243N, T330A, A351V and ERG11 D225G, E266D, E391G, V488I mutant genes by broth microdilution method
Candida albicans [6] = test: Antifungal activity against Candida albicans isolate 490 harboring ERG3 D147G, T330A, A351V and ERG11 F72S, T229A, E266D, N440S, V488I, R523G mutant genes by broth microdilution method
Candida albicans [7] = test: Antifungal activity against Candida albicans isolate 1008 harboring ERG3 K97E, L193P, V237A, A351V, A353T and ERG11 E266D mutant genes by broth microdilution method
Candida albicans [8] = test: Antifungal activity against Candida albicans isolate 6 assessed as ergosterol content in total sterol composition at 0.5 times MIC by GC-MS analysis
Candida albicans [9] = test: Antifungal activity against Candida albicans isolate 14 assessed as ergosterol content in total sterol composition at 0.5 times MIC by GC-MS analysis
Candida albicans [10] = test: Antifungal activity against Candida albicans isolate 177 assessed as ergosterol content in total sterol composition at 0.5 times MIC by GC-MS analysis
Candida albicans [11] = test: Antifungal activity against Candida albicans isolate 12 harboring ERG3 W332R mutant gene assessed as ergosterol content in total sterol composition at 0.5 times MIC by GC-MS analysis
Candida albicans [12] = test: Antifungal activity against Candida albicans isolate 488 harboring ERG3 H243N, T330A, A351V and ERG11 D225G, E266D, E391G, V488I mutant genes assessed as ergosterol content in total sterol composition at 0.5 times MIC by GC-MS analysis
Candida albicans [13] = test: Antifungal activity against Candida albicans isolate 490 harboring ERG3 D147G, T330A, A351V and ERG11 F72S, T229A, E266D, N440S, V488I, R523G mutant genes assessed as ergosterol content in total sterol composition at 0.5 times MIC by GC-MS analysis
Candida albicans [14] = test: Antifungal activity against Candida albicans isolate 12 harboring ERG3 W332R mutant gene assessed as ergosta 7,22-dienol content in total sterol composition at 0.5 times MIC by GC-MS analysis
Candida albicans [15] = test: Antifungal activity against Candida albicans isolate 177 assessed as 14alpha-methyl fecosterol content in total sterol composition at 0.5 times MIC by GC-MS analysis
Candida albicans [16] = test: Antifungal activity against Candida albicans isolate 12 harboring ERG3 W332R mutant gene assessed as 14alpha-methyl fecosterol content in total sterol composition at 0.5 times MIC by GC-MS analysis
Candida albicans [17] = test: Antifungal activity against Candida albicans isolate 488 harboring ERG3 H243N, T330A, A351V and ERG11 D225G, E266D, E391G, V488I mutant genes assessed as 14alpha-methyl fecosterol content in total sterol composition at 0.5 times MIC by GC-MS analysis
Candida albicans [18] = test: Antifungal activity against Candida albicans isolate 490 harboring ERG3 D147G, T330A, A351V and ERG11 F72S, T229A, E266D, N440S, V488I, R523G mutant genes assessed as 14alpha-methyl fecosterol content in total sterol composition at 0.5 times MIC by GC-MS analysis
Candida albicans [19] = test: Antifungal activity against Candida albicans isolate 1008 harboring ERG3 K97E, L193P, V237A, A351V, A353T and ERG11 E266D mutant genes assessed as 14alpha-methyl fecosterol content in total sterol composition at 0.5 times MIC by GC-MS analysis
Candida albicans [20] = test: Antifungal activity against Candida albicans isolate 177 assessed as 14alpha-methylergosta-8,24(28)-dien-3beta,6alpha-diol content in total sterol composition at 0.5 times MIC by GC-MS analysis
Candida albicans [21] = test: Antifungal activity against Candida albicans isolate 12 harboring ERG3 W332R mutant gene assessed as 14alpha-methylergosta-8,24(28)-dien-3beta,6alpha-diol content in total sterol composition at 0.5 times MIC by GC-MS analysis
Candida albicans [22] = test: Antifungal activity against Candida albicans isolate 488 harboring ERG3 H243N, T330A, A351V and ERG11 D225G, E266D, E391G, V488I mutant genes assessed as 14alpha-methylergosta-8,24(28)-dien-3beta,6alpha-diol content in total sterol composition at 0.5 times MIC by GC-MS analysis
Candida albicans [23] = test: Antifungal activity against Candida albicans isolate 490 harboring ERG3 D147G, T330A, A351V and ERG11 F72S, T229A, E266D, N440S, V488I, R523G mutant genes assessed as 14alpha-methylergosta-8,24(28)-dien-3beta,6alpha-diol content in total sterol composition at 0.5 times MIC by GC-MS analysis
Candida albicans [24] = test: Antifungal activity against Candida albicans isolate 14 assessed as lanosterol/obtusifoliol content in total sterol composition at 0.5 times MIC by GC-MS analysis
Candida albicans [25] = test: Antifungal activity against Candida albicans isolate 177 assessed as lanosterol/obtusifoliol content in total sterol composition at 0.5 times MIC by GC-MS analysis
Candida albicans [26] = test: Antifungal activity against Candida albicans isolate 12 harboring ERG3 W332R mutant gene assessed as lanosterol/obtusifoliol content in total sterol composition at 0.5 times MIC by GC-MS analysis
Candida albicans [27] = test: Antifungal activity against Candida albicans isolate 488 harboring ERG3 H243N, T330A, A351V and ERG11 D225G, E266D, E391G, V488I mutant genes assessed as lanosterol/obtusifoliol content in total sterol composition at 0.5 times MIC by GC-MS analysis
Candida albicans [28] = test: Antifungal activity against Candida albicans isolate 490 harboring ERG3 D147G, T330A, A351V and ERG11 F72S, T229A, E266D, N440S, V488I, R523G mutant genes assessed as lanosterol/obtusifoliol content in total sterol composition at 0.5 times MIC by GC-MS analysis
Candida albicans [29] = test: Antifungal activity against Candida albicans isolate 1008 harboring ERG3 K97E, L193P, V237A, A351V, A353T and ERG11 E266D mutant genes assessed as lanosterol/obtusifoliol content in total sterol composition at 0.5 times MIC by GC-MS analysis
Candida albicans [30] = test: Antifungal activity against Candida albicans isolate 6 assessed as eburicol content in total sterol composition at 0.5 times MIC by GC-MS analysis
Candida albicans [31] = test: Antifungal activity against Candida albicans isolate 177 assessed as eburicol content in total sterol composition at 0.5 times MIC by GC-MS analysis
Candida albicans [32] = test: Antifungal activity against Candida albicans isolate 12 harboring ERG3 W332R mutant gene assessed as eburicol content in total sterol composition at 0.5 times MIC by GC-MS analysis
Candida albicans [33] = test: Antifungal activity against Candida albicans isolate 488 harboring ERG3 H243N, T330A, A351V and ERG11 D225G, E266D, E391G, V488I mutant genes assessed as eburicol content in total sterol composition at 0.5 times MIC by GC-MS analysis
Candida albicans [34] = test: Antifungal activity against Candida albicans isolate 1008 harboring ERG3 K97E, L193P, V237A, A351V, A353T and ERG11 E266D mutant genes assessed as eburicol content in total sterol composition at 0.5 times MIC by GC-MS analysis
Candida albicans [35] = test: Antifungal activity against Candida albicans isolate 6 by broth microdilution method in presence of 10 uM drug efflux inhibitor FK506
Candida albicans [36] = test: Antifungal activity against Candida albicans isolate 14 by broth microdilution method in presence of 10 uM drug efflux inhibitor FK506
Candida albicans [37] = test: Antifungal activity against Candida albicans isolate 177 by broth dilution method in presence of 10 uM drug efflux inhibitor FK506
Candida albicans [38] = test: Antifungal activity against Candida albicans isolate 12 harboring ERG3 W332R mutant gene by broth microdilution method in presence of 10 uM drug efflux inhibitor FK506
Candida albicans [39] = test: Antifungal activity against Candida albicans isolate 488 harboring ERG3 H243N, T330A, A351V and ERG11 D225G, E266D, E391G, V488I mutant genes by broth microdilution method in presence of 10 uM drug efflux inhibitor FK506
Candida albicans [40] = test: Antifungal activity against Candida albicans isolate 490 harboring ERG3 D147G, T330A, A351V and ERG11 F72S, T229A, E266D, N440S, V488I, R523G mutant genes by broth microdilution method in presence of 10 uM drug efflux inhibitor FK506
Candida albicans [41] = test: Antifungal activity against Candida albicans isolate 1008 harboring ERG3 K97E, L193P, V237A, A351V, A353T and ERG11 E266D mutant genes by broth microdilution method in presence of 10 uM drug efflux inhibitor FK506

C[C@@H]1[C@H](O)[C@@H](C)/C=C/C=C/C=C/C=C/C=C/C=C/C=C/[C@H](O[C@@H]2O[C@H](C)[C@@H](O)[C@H](N)[C@@H]2O)C[C@@H]2O[C@](O)(C[C@@H](O)C[C@@H](O)[C@H](O)CC[C@@H](O)C[C@@H](O)CC(=O)O[C@H]1C)C[C@H](O)[C@H]2C(=O)O [AMPHOTERICIN B]
MIC (Candida albicans [1]): 0.25 µg/mL (≈ 0.271 µM)
MIC (Candida albicans [2]): 0.25 µg/mL (≈ 0.271 µM)
MIC (Candida albicans [3]): 0.25 µg/mL (≈ 0.271 µM)
MIC (Candida albicans [4]): 0.5 µg/mL (≈ 0.541 µM)
MIC (Candida albicans [5]): 0.25 µg/mL (≈ 0.271 µM)
MIC (Candida albicans [6]): 0.25 µg/mL (≈ 0.271 µM)
MIC (Candida albicans [7]): 1 µg/mL (≈ 1.08 µM)

OC(Cn1cncn1)(Cn1cncn1)c1ccc(F)cc1F [FLUCONAZOLE]
Activity (Candida albicans [8]): 74.5%
Activity (Candida albicans [9]): 89.4%
Activity (Candida albicans [10]): 76%
Activity (Candida albicans [11]): 2.6%
Activity (Candida albicans [12]): 7.2%
Activity (Candida albicans [13]): 3.5%
Activity (Candida albicans [14]): 1.7%
Activity (Candida albicans [15]): 2%
Activity (Candida albicans [16]): 64.3%
Activity (Candida albicans [17]): 55.6%
Activity (Candida albicans [18]): 69.2%
Activity (Candida albicans [19]): 74%
Activity (Candida albicans [20]): 6.5%
Activity (Candida albicans [21]): 1.6%
Activity (Candida albicans [22]): 14.3%
Activity (Candida albicans [23]): 13.7%
Activity (Candida albicans [24]): 10.6%
Activity (Candida albicans [25]): 10.6%
Activity (Candida albicans [26]): 18.3%
Activity (Candida albicans [27]): 15.2%
Activity (Candida albicans [28]): 13.7%
Activity (Candida albicans [29]): 14.4%
Activity (Candida albicans [30]): 5.4%
Activity (Candida albicans [31]): 4.9%
Activity (Candida albicans [32]): 11.6%
Activity (Candida albicans [33]): 7.7%
Activity (Candida albicans [34]): 9.8%
MIC (Candida albicans [1]): 256 µg/mL (≈ 836 µM)
MIC (Candida albicans [2]): 1 µg/mL (≈ 3.27 µM)
MIC (Candida albicans [3]): 256 µg/mL (≈ 836 µM)
MIC (Candida albicans [4]): > 256 µg/mL
MIC (Candida albicans [5]): > 256 µg/mL
MIC (Candida albicans [6]): > 256 µg/mL
MIC (Candida albicans [7]): > 256 µg/mL
MIC (Candida albicans [35]): 1 µg/mL
MIC (Candida albicans [36]): 1 µg/mL
MIC (Candida albicans [37]): 0.5 µg/mL
MIC (Candida albicans [38]): > 256 µg/mL
MIC (Candida albicans [39]): 2 µg/mL
MIC (Candida albicans [40]): 2 µg/mL
MIC (Candida albicans [41]): > 256 µg/mL

CCC(C)n1ncn(-c2ccc(N3CCN(c4ccc(OCC5COC(Cn6cncn6)(c6ccc(Cl)cc6Cl)O5)cc4)CC3)cc2)c1=O (stereo not given) [ITRACONAZOLE]
MIC (Candida albicans [1]): 16 µg/mL (≈ 22.7 µM)
MIC (Candida albicans [2]): 0.0625 µg/mL (≈ 0.0886 µM)
MIC (Candida albicans [3]): 16 µg/mL (≈ 22.7 µM)
MIC (Candida albicans [4]): > 16 µg/mL
MIC (Candida albicans [5]): > 16 µg/mL
MIC (Candida albicans [6]): > 16 µg/mL
MIC (Candida albicans [7]): > 16 µg/mL
